According to PubChem BioAssay (NCI):
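These data come from cells grown in 96-well plates and exposed to compound for 48 hours at five concentrations. TGI is the concentration that stops growth completely.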

Experiments:
Experiment in all cases: NCI tumour cell line growth inhibition, 48 h
[1] = test system: 786-0 renal
[2] = test system: A549 NSCLC
[3] = test system: ACHN renal
[4] = test system: BT-549 breast
[5] = test system: CAKI-1 renal
[6] = test system: CCRF-CEM leukemia
[7] = test system: COLO 205 colon
[8] = test system: DU-145 prostate
[9] = test system: EKVX NSCLC
[10] = test system: HCC-2998 colon
[11] = test system: HCT-116 colon
[12] = test system: HCT-15 colon
[13] = test system: HL-60(TB) leukemia
[14] = test system: HOP-62 NSCLC
[15] = test system: HS 578T breast
[16] = test system: HT29 colon
[17] = test system: IGROV1 ovarian
[18] = test system: K-562 leukemia
[19] = test system: KM12 colon
[20] = test system: LOX IMVI melanoma
[21] = test system: M14 melanoma
[22] = test system: MALME-3M melanoma
[23] = test system: MCF7 breast
[24] = test system: MDA-MB-231 breast
[25] = test system: MDA-MB-435
[26] = test system: MDA-N
[27] = test system: MOLT-4 leukemia
[28] = test system: NCI-H226 lung
[29] = test system: NCI-H23 lung
[30] = test system: NCI-H460 lung
[31] = test system: NCI-H522 lung
[32] = test system: NCI/ADR-RES ovarian
[33] = test system: OVCAR-3 ovarian
[34] = test system: OVCAR-4 ovarian
[35] = test system: OVCAR-5 ovarian
[36] = test system: OVCAR-8 ovarian
[37] = test system: PC-3 prostate
[38] = test system: RPMI-8226 leukemia
[39] = test system: RXF 393 renal
[40] = test system: SF-268 CNS
[41] = test system: SF-295 CNS
[42] = test system: SK-MEL-2 melanoma
[43] = test system: SK-MEL-28 melanoma
[44] = test system: SK-MEL-5 melanoma
[45] = test system: SK-OV-3 ovarian
[46] = test system: SN12C renal
[47] = test system: SNB-19 CNS
[48] = test system: SR leukemia
[49] = test system: SW-620 colon
[50] = test system: T-47D breast
[51] = test system: TK-10 renal
[52] = test system: U251 CNS
[53] = test system: UACC-257 melanoma
[54] = test system: UACC-62 melanoma
[55] = test system: UO-31 renal
[56] = test system: A498 renal
[57] = test system: HOP-92 NSCLC
[58] = test system: SF-539 CNS
[59] = test system: SNB-75 CNS

For `CN(C)CCNc1ncnc2nc(-c3ccc4ccccc4c3)[nH]c12`, the TGI [1] was over 100 µM, the TGI [2] was over 100 µM and the TGI [3] was over 100 µM. It also gave a TGI [4] of over 100 µM, a TGI [5] of over 100 µM and a TGI [6] of over 100 µM. The TGI [7] was over 100 µM, the TGI [8] was over 100 µM and the TGI [9] was over 100 µM. It also gave a TGI [10] of over 100 µM, a TGI [11] of over 100 µM and a TGI [12] of over 100 µM. It also gave a TGI [13] of over 100 µM, a TGI [14] of over 100 µM and a TGI [15] of over 100 µM. It also gave a TGI [16] of over 100 µM, a TGI [17] of over 100 µM and a TGI [18] of over 100 µM. The TGI [19] was over 100 µM, the TGI [20] was over 100 µM and the TGI [21] was over 100 µM. For the same compound, the TGI [22] was over 100 µM, the TGI [23] was over 100 µM and the TGI [24] was over 100 µM. For the same compound, the TGI [25] was over 100 µM, the TGI [26] was over 100 µM and the TGI [27] was over 100 µM. It also gave a TGI [28] of over 100 µM, a TGI [29] of over 100 µM and a TGI [30] of over 100 µM. The TGI [31] was over 100 µM, the TGI [32] was over 100 µM and the TGI [33] was over 100 µM. It also gave a TGI [34] of over 100 µM, a TGI [35] of over 100 µM and a TGI [36] of over 100 µM. It also gave a TGI [37] of over 100 µM, a TGI [38] of over 100 µM and a TGI [39] of over 100 µM. It also gave a TGI [40] of over 100 µM, a TGI [41] of over 100 µM and a TGI [42] of over 100 µM. It also gave a TGI [43] of over 100 µM, a TGI [44] of over 100 µM and a TGI [45] of over 100 µM. It also gave a TGI [46] of over 100 µM, a TGI [47] of over 100 µM and a TGI [48] of over 100 µM. It also gave a TGI [49] of over 100 µM, a TGI [50] of over 100 µM and a TGI [51] of over 100 µM. It also gave a TGI [52] of over 100 µM, a TGI [53] of over 100 µM and a TGI [54] of over 100 µM. For the same compound, the TGI [55] was over 100 µM.

Compound `O=C1/C(=C2\Sc3c(ccc(Cl)c3Cl)C2=O)Sc2c1ccc(Cl)c2Cl` has a TGI [1] of over 100 µM, a TGI [56] of over 100 µM and a TGI [2] of over 100 µM. For the same compound, the TGI [3] was over 100 µM, the TGI [4] was over 100 µM and the TGI [5] was over 100 µM. The TGI [6] was over 100 µM, the TGI [7] was over 100 µM and the TGI [8] was over 100 µM. The TGI [9] was over 100 µM, the TGI [10] was over 100 µM and the TGI [11] was over 100 µM. It also gave a TGI [12] of over 100 µM, a TGI [14] of over 100 µM and a TGI [57] of over 100 µM. The TGI [15] was over 100 µM, the TGI [16] was over 100 µM and the TGI [17] was over 100 µM. The TGI [18] was over 100 µM, the TGI [19] was over 100 µM and the TGI [21] was over 100 µM. It also gave a TGI [22] of over 100 µM, a TGI [23] of over 100 µM and a TGI [24] of over 100 µM. For the same compound, the TGI [25] was over 100 µM, the TGI [26] was over 100 µM and the TGI [27] was over 100 µM. The TGI [28] was over 100 µM, the TGI [29] was over 100 µM and the TGI [30] was over 100 µM. The TGI [31] was over 100 µM, the TGI [32] was over 100 µM and the TGI [33] was over 100 µM. The TGI [34] was over 100 µM, the TGI [35] was over 100 µM and the TGI [36] was over 100 µM. The TGI [37] was over 100 µM, the TGI [38] was over 100 µM and the TGI [39] was over 100 µM. For the same compound, the TGI [40] was over 100 µM, the TGI [41] was over 100 µM and the TGI [58] was over 100 µM. For the same compound, the TGI [42] was over 100 µM, the TGI [43] was over 100 µM and the TGI [44] was over 100 µM. For the same compound, the TGI [46] was over 100 µM, the TGI [47] was over 100 µM and the TGI [59] was over 100 µM. For the same compound, the TGI [48] was over 100 µM, the TGI [49] was over 100 µM and the TGI [50] was over 100 µM. The TGI [51] was over 100 µM, the TGI [52] was over 100 µM and the TGI [53] was over 100 µM. The TGI [54] was over 100 µM and the TGI [55] was over 100 µM.

For `OCC1OC(n2cnc3c(/C=C(/O)c4ccccc4)ncnc32)C(O)C1O` (stereo not drawn), the TGI [1] was over 100 µM, the TGI [56] was over 91.1 µM and the TGI [2] was over 100 µM. For the same compound, the TGI [3] was over 100 µM, the TGI [4] was over 100 µM and the TGI [5] was over 100 µM. The TGI [6] was over 100 µM, the TGI [7] was 2.7 µM and the TGI [8] was over 100 µM. For the same compound, the TGI [9] was over 100 µM, the TGI [11] was over 100 µM and the TGI [12] was over 100 µM. For the same compound, the TGI [13] was 24 µM, the TGI [14] was over 100 µM and the TGI [57] was over 100 µM. The TGI [15] was over 100 µM, the TGI [16] was over 100 µM and the TGI [17] was over 100 µM. It also gave a TGI [18] of over 100 µM, a TGI [19] of over 100 µM and a TGI [20] of over 100 µM. The TGI [21] was over 100 µM, the TGI [22] was over 100 µM and the TGI [23] was over 100 µM. The TGI [24] was over 30 µM, the TGI [25] was over 100 µM and the TGI [26] was over 100 µM. For the same compound, the TGI [27] was over 100 µM, the TGI [28] was over 92.7 µM and the TGI [29] was over 100 µM. The TGI [30] was 7.56 µM, the TGI [31] was 43.1 µM and the TGI [32] was over 92 µM. For the same compound, the TGI [33] was over 100 µM, the TGI [34] was over 88.1 µM and the TGI [35] was over 100 µM. It also gave a TGI [36] of over 100 µM, a TGI [37] of over 62.4 µM and a TGI [38] of over 100 µM. It also gave a TGI [39] of over 100 µM, a TGI [40] of over 100 µM and a TGI [41] of over 100 µM. The TGI [58] was over 100 µM, the TGI [42] was over 24.7 µM and the TGI [43] was over 100 µM. For the same compound, the TGI [44] was 79.7 µM, the TGI [46] was over 100 µM and the TGI [47] was over 100 µM. It also gave a TGI [59] of over 25.1 µM, a TGI [48] of over 100 µM and a TGI [49] of over 100 µM. It also gave a TGI [50] of over 100 µM, a TGI [51] of 13.5 µM and a TGI [52] of over 100 µM. It also gave a TGI [53] of over 62.9 µM, a TGI [54] of over 100 µM and a TGI [55] of over 35.7 µM.
